Patent publication US6432960B1, “Squarate derivatives of dihydropyridine NPY antagonists” (Bristol-Myers Squibb Company, priority 2000, dated 2002)

Tests used:
NPY Y1 receptors = target: T1, NPY Y1 receptors (Homo sapiens, UniProt P25929); test: Binding affinity at NPY Y1 receptors in SK-N-MC cell membranes, iodine-125-labeled I-PYY radioligand; conditions: SK-N-MC (human neuroblastoma) cell membranes; 125I-PYY radioligand
T1 construct: assayed in SK-N-MC (human neuroplastoma) cell membranes; endogenous in cells; host or cells: SK-N-MC (human neuroblastoma) cell membranes
T1 sequence (P25929 1-384): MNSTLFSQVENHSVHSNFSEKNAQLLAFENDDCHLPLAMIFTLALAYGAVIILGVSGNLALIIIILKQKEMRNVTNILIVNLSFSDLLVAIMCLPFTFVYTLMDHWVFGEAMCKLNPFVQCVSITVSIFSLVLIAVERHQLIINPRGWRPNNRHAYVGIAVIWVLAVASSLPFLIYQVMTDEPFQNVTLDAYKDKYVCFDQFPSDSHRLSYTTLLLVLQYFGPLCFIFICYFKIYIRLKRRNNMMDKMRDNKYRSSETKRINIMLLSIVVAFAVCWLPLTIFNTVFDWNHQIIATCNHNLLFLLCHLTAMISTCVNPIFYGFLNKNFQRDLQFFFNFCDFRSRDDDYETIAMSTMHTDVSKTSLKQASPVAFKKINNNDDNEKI
Method: This pharmacologic activity is assayed in SK-N-MC (human neuroblastoma) cell membranes using iodine-125-labeled I-PYY as a radioligand. […] These types of dihydropyridines have significant affinity for α1-adrenergic receptors and/or Ca^++ channels.
The following examples set forth the process for producing various squarate derivatives of the dihydropyridine. The binding affinities were determined at NPY Y1 receptors. The pharmacologic activity was assayed in SK-N-MC (human neuroblastoma) cell membranes using iodine-125-labeled 1-PYY as ratio ligand. Examples 1 and 2 are directed to the production of the intermediates. Examples 3-6 are directed to the process of producing the squarate derivatives.
The compounds of Examples 1-6 were tested for binding affinity at NPY Y1 receptors. The pharmacologic activity was assayed in SK-N-MC (human neuroplastoma) cell membranes using iodine-125 labeled I-PYY as a radioligand.

| IC50 (NPY Y1 receptors) [nM] | melting point [°C] | Compound |
| --- | --- | --- |
| 950 | 229 to 230 | COC(=O)C1=C(C)NC(C)=C(C(=O)OC)C1c1ccc(F)c(Nc2c(NCCCN3CCN(C4CCCCC4)CC3)c(=O)c2=O)c1 [Example 6, 4-[3-[[2-[[3-(4-cyclohexyl-1-piperazinyl)propyl]amino]-3,4-dioxo-1-cyclobuten-1-yl]amino]-4-fluorophenyl]-1,4-dihydro-2,6-dimethyl-3,5-pyridinedicarboxylic Acid, Dimethyl Ester] |
| 24.6 | – | COC(=O)C1=C(C)NC(C)=C(C(=O)OC)C1c1cccc(Nc2c(NCCCN3CCC(c4cccc(OC)c4)CC3)c(=O)c2=O)c1 [Example 3, 1,4-Dihydro-4-[3-[[2-[[3-[4-(3-methoxyphenyl)-1-piperidinyl]propyl]amino]-3,4-dioxo-1-cyclobuten-1-yl]amino]phenyl]-2,3-dimethyl-3,5-pyridinedicarboxylic Acid, Dimethyl Ester] |
| > 1000 | 249 to 252 | CCOc1c(Nc2cccc(C3C(C(=O)OC)=C(C)NC(C)=C3C(=O)OC)c2)c(=O)c1=O [Example 1, 4-[3-[(2-Ethoxy-3,4-dioxo-1-cyclobuten-1-yl)amino]phenyl]-1,4-dihydro-2,6-dimethyl-3,5-pyridinedicarboxylic Acid, Dimethyl Ester] |
| 140 | 210 to 212 | COC(=O)C1=C(C)NC(C)=C(C(=O)OC)C1c1cccc(Nc2c(NCCCN3CCN(C4CCCCC4)CC3)c(=O)c2=O)c1 [Example 5, 4-[3-[[2-[[3-(4-cyclohexyl-1-piperazinyl)propyl]amino]-3,4-dioxo-1-cyclobuten-1-yl]amino]phenyl]-1,4-dihydro-2,6-dimethyl-3,5-pyridinedicarboxylic Acid, Dimethyl Ester] |
| > 1000 | 203 to 205 | CCOc1c(Nc2cc(C3C(C(=O)OC)=C(C)NC(C)=C3C(=O)OC)ccc2F)c(=O)c1=O [Example 2, 4-[3-[(2-Ethoxy-3,4-dioxo-1cyclobuten-1-yl)amino]-4-fluorophenyl]-1,4-dihydro-2,6-dimethyl-3,5-pyridinedicarboxylic Acid, Dimethyl Ester] |
| 65.8 | 205 to 207 | COC(=O)C1=C(C)NC(C)=C(C(=O)OC)C1c1ccc(F)c(Nc2c(NCCCN3CCC(c4cccc(OC)c4)CC3)c(=O)c2=O)c1 [Example 4, 4-[4-Fluoro-3-[[2-[[3-[4-(3-methoxyphenyl)-1-piperidinyl]propyl]amino]-3,4-dioxo-1-cyclobuten-1-yl]amino]phenyl]-1,4-dihydro-2,6-dimethyl-3,5-pyridinedicarboxylic Acid, Dimethyl Ester] |
